Results as given in patent publication US20190093170A1, “USE OF TRANSLATIONAL PROFILING TO IDENTIFY TARGET MOLECULES FOR THERAPEUTIC TREATMENT” (THE REGENTS OF THE UNIVERSITY OF CALIFORNIA, priority 2013, published 2019).

System: Pten^L/L prostate cancer mouse model
Assay: Pharmacological treatment of Pten^L/L mice (preclinical trial; IHC, immunofluorescence, histology, MRI, lymph node metastasis)
Type: in vivo
Conditions: 28 days, RAD001 10 mg/kg daily
Description: Weight measurements were taken every 3 days to monitor for toxicity. For the 28-day study, mice were imaged via MRI at day 0 and day 28 in a 14-T GE MR scanner (GE Healthcare).
Whole mouse prostates were removed from wild-type and Pten^L/L mice, microdissected, and frozen in liquid nitrogen. Frozen tissues were subsequently manually disassociated using a biopulverizer (Biospec) and additionally processed for protein and mRNA analysis as described above.
Prostates and lymph nodes were dissected from mice within 2 hr of the indicated treatment and fixed in 10% formalin overnight at 4° C. Tissues were subsequently dehydrated in ethanol (Sigma) at room temperature, mounted into paraffin blocks, and sectioned at 5 μm. Specimens were de-paraffinized and rehydrated using CitriSolv (Fisher) followed by serial ethanol washes. […] Sections were washed in distilled water followed by TBS washes. The sections were then incubated in 5% goat serum, 1% BSA in TBS for 1 hr at room temperature. Various primary antibodies were used, including those specific for keratin 5 (Covance), cytokeratin 8 (Abcam and Covance), YB1 (Abcam), vimentin (Abcam), MTA1 (Cell signaling), CD44 (BD Pharmingen), and the androgen receptor (Epitomics), which were diluted 1:50-1:500 in blocking solution and incubated on sections overnight at 4° C. Specimens were then washed in TBS and incubated with the appropriate Alexa 488 and 594 labeled secondary (Invitrogen) at 1:500 for 2 hr at room temperature, with the exception of YB1 which was incubated with biotinylated anti-rabbit secondary (Vector) followed by incubation with Alexa 594 labeled Streptavidin (Invitrogen). A final set of washes in TBS was completed at room temperature followed by mounting with DAPI Hardset Mounting Medium (Vector Lab). A Zeiss Spinning Disc confocal (Zeiss, CSU-X1) was used to image the sections at 40×-100×. Individual prostate cells were quantified for mean fluorescence intensity (m.f.i.) using the Axiovision (Zeiss, Release 4.8) densitometric tool.
Mouse lymph nodes were processed as described above and stained for CK8 and androgen receptor. Lymph nodes were imaged using a Zeiss AX10 microscope. Metastases were identified and areas were measured using the Axiovision (Zeiss, Release 4.8) measurement tool.
Immunohistochemistry was performed as described above (see “Immunofluorescence”) with the exception that immediately after antigen […] and TBS washes, specimens were incubated in 3% hydrogen peroxide in TBS followed by TBS washes. The following primary antibodies were used: phospho-AKT^S473 (Cell Signaling), phospho-rpS6^S240/244 (Cell Signaling), phospho-4EBP1^T37/46 (Cell Signaling), phospho-histone H3 (Upstate), and cleaved caspase (Cell Signaling). […] The protein of interest was detected using DAB (Sigma). […]

[1] = ATP site inhibitor of mTOR 1 mg/kg daily

## CO[C@H]1C[C@@H]2CC[C@@H](C)[C@@](O)(O2)C(=O)C(=O)N2CCCC[C@H]2C(=O)O[C@H]([C@H](C)C[C@@H]2CC[C@@H](OCCO)[C@H](OC)C2)CC(=O)[C@H](C)/C=C(\C)[C@@H](O)[C@@H](OC)C(=O)[C@H](C)C[C@H](C)/C=C/C=C/C=C/1C [RAD001]
[1]
  4EBP1 and p70S6K1/2 phosphorylation: only decreased p70S6K1/2 phosphorylation levels
  apoptosis (cleaved caspase 3): no significant effect
  proliferation (phospho-histone H3): limited decrease in cell proliferation
  regression of PIN lesions: only partial regression of PIN lesions
